Reference: PubChem BioAssay (NCI)
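Where inhibition never reached the appropriate level, the endpoint shown equals the highest concentration tested. Otherwise, values were interpolated linearly from a five-concentration, 48-hour dose response in 96-well plates. TGI is the concentration that stops growth completely.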

Test system: HL-60(TB) leukemia
Assay: NCI tumour cell line growth inhibition, 48 h

SMILES | TGI [µM]
COC(=O)C1C(=O)O[C@@H](c2ccc3c(c2)OCO3)C1C(=O)OC (mixture of isomers) | > 100
OCc1cc2c(cn1)[nH]c1ccc(NCc3ccccc3)cc12 | 31.4
O=[N+]([O-])c1ccccc1C1SCc2nc3ccccc3n21 (configuration not stated) | > 100

Test system: HOP-18 NSCLC
Assay: NCI tumour cell line growth inhibition, 48 h

SMILES | TGI [µM]
O=[N+]([O-])c1ccccc1C1SCc2nc3ccccc3n21 (configuration not stated) | > 100

Test system: HOP-62 NSCLC
Assay: NCI tumour cell line growth inhibition, 48 h

SMILES | TGI [µM]
O=c1cc(O)cc2n1CCC2 | > 100
COC(=O)C1C(=O)O[C@@H](c2ccc3c(c2)OCO3)C1C(=O)OC (mixture of isomers) | > 100
OCc1cc2c(cn1)[nH]c1ccc(NCc3ccccc3)cc12 | > 100
O=[N+]([O-])c1ccccc1C1SCc2nc3ccccc3n21 (configuration not stated) | > 100

Test system: HOP-92 NSCLC
Assay: NCI tumour cell line growth inhibition, 48 h

SMILES | TGI [µM]
COC(=O)C1C(=O)O[C@@H](c2ccc3c(c2)OCO3)C1C(=O)OC (mixture of isomers) | > 100
OCc1cc2c(cn1)[nH]c1ccc(NCc3ccccc3)cc12 | 57.3
O=[N+]([O-])c1ccccc1C1SCc2nc3ccccc3n21 (configuration not stated) | > 100

Test system: HT29 colon
Assay: NCI tumour cell line growth inhibition, 48 h

SMILES | TGI [µM]
O=c1cc(O)cc2n1CCC2 | > 100
COC(=O)C1C(=O)O[C@@H](c2ccc3c(c2)OCO3)C1C(=O)OC (mixture of isomers) | > 100
OCc1cc2c(cn1)[nH]c1ccc(NCc3ccccc3)cc12 | 32.2
O=[N+]([O-])c1ccccc1C1SCc2nc3ccccc3n21 (configuration not stated) | > 100

Test system: IGROV1 ovarian
Assay: NCI tumour cell line growth inhibition, 48 h

SMILES | TGI [µM]
O=c1cc(O)cc2n1CCC2 | > 100
COC(=O)C1C(=O)O[C@@H](c2ccc3c(c2)OCO3)C1C(=O)OC (mixture of isomers) | > 100
OCc1cc2c(cn1)[nH]c1ccc(NCc3ccccc3)cc12 | > 100
O=[N+]([O-])c1ccccc1C1SCc2nc3ccccc3n21 (configuration not stated) | > 100

Test system: K-562 leukemia
Assay: NCI tumour cell line growth inhibition, 48 h

SMILES | TGI [µM]
O=c1cc(O)cc2n1CCC2 | > 100
COC(=O)C1C(=O)O[C@@H](c2ccc3c(c2)OCO3)C1C(=O)OC (mixture of isomers) | > 100
OCc1cc2c(cn1)[nH]c1ccc(NCc3ccccc3)cc12 | > 100
O=[N+]([O-])c1ccccc1C1SCc2nc3ccccc3n21 (configuration not stated) | > 100

Test system: KM12 colon
Assay: NCI tumour cell line growth inhibition, 48 h

SMILES | TGI [µM]
O=c1cc(O)cc2n1CCC2 | > 100
COC(=O)C1C(=O)O[C@@H](c2ccc3c(c2)OCO3)C1C(=O)OC (mixture of isomers) | > 100
OCc1cc2c(cn1)[nH]c1ccc(NCc3ccccc3)cc12 | 43.3
O=[N+]([O-])c1ccccc1C1SCc2nc3ccccc3n21 (configuration not stated) | > 100

Test system: KM20L2 colon
Assay: NCI tumour cell line growth inhibition, 48 h

SMILES | TGI [µM]
O=c1cc(O)cc2n1CCC2 | > 100
COC(=O)C1C(=O)O[C@@H](c2ccc3c(c2)OCO3)C1C(=O)OC (mixture of isomers) | > 100
OCc1cc2c(cn1)[nH]c1ccc(NCc3ccccc3)cc12 | 55.6

Test system: LOX IMVI melanoma
Assay: NCI tumour cell line growth inhibition, 48 h

SMILES | TGI [µM]
O=c1cc(O)cc2n1CCC2 | > 100
COC(=O)C1C(=O)O[C@@H](c2ccc3c(c2)OCO3)C1C(=O)OC (mixture of isomers) | > 100
OCc1cc2c(cn1)[nH]c1ccc(NCc3ccccc3)cc12 | > 100
O=[N+]([O-])c1ccccc1C1SCc2nc3ccccc3n21 (configuration not stated) | > 100

Test system: LXFL 529 NSCLC
Assay: NCI tumour cell line growth inhibition, 48 h

SMILES | TGI [µM]
O=c1cc(O)cc2n1CCC2 | > 100
COC(=O)C1C(=O)O[C@@H](c2ccc3c(c2)OCO3)C1C(=O)OC (mixture of isomers) | > 100
OCc1cc2c(cn1)[nH]c1ccc(NCc3ccccc3)cc12 | 58.8
O=[N+]([O-])c1ccccc1C1SCc2nc3ccccc3n21 (configuration not stated) | > 100

Test system: M14 melanoma
Assay: NCI tumour cell line growth inhibition, 48 h

SMILES | TGI [µM]
O=c1cc(O)cc2n1CCC2 | > 100
COC(=O)C1C(=O)O[C@@H](c2ccc3c(c2)OCO3)C1C(=O)OC (mixture of isomers) | > 100
OCc1cc2c(cn1)[nH]c1ccc(NCc3ccccc3)cc12 | 37.5

Test system: M19-MEL melanoma
Assay: NCI tumour cell line growth inhibition, 48 h

SMILES | TGI [µM]
COC(=O)C1C(=O)O[C@@H](c2ccc3c(c2)OCO3)C1C(=O)OC (mixture of isomers) | > 100
OCc1cc2c(cn1)[nH]c1ccc(NCc3ccccc3)cc12 | 60.3

Test system: MALME-3M melanoma
Assay: NCI tumour cell line growth inhibition, 48 h

SMILES | TGI [µM]
O=c1cc(O)cc2n1CCC2 | > 100
COC(=O)C1C(=O)O[C@@H](c2ccc3c(c2)OCO3)C1C(=O)OC (mixture of isomers) | > 100
OCc1cc2c(cn1)[nH]c1ccc(NCc3ccccc3)cc12 | > 100
O=[N+]([O-])c1ccccc1C1SCc2nc3ccccc3n21 (configuration not stated) | > 100

Test system: MOLT-4 leukemia
Assay: NCI tumour cell line growth inhibition, 48 h

SMILES | TGI [µM]
O=c1cc(O)cc2n1CCC2 | > 100
COC(=O)C1C(=O)O[C@@H](c2ccc3c(c2)OCO3)C1C(=O)OC (mixture of isomers) | > 100
OCc1cc2c(cn1)[nH]c1ccc(NCc3ccccc3)cc12 | 55.8
O=[N+]([O-])c1ccccc1C1SCc2nc3ccccc3n21 (configuration not stated) | > 100

Test system: NCI-H226 lung
Assay: NCI tumour cell line growth inhibition, 48 h

SMILES | TGI [µM]
O=c1cc(O)cc2n1CCC2 | > 100
